{"source": "patent EP4603105A1", "about": "“PHARMACEUTICAL COMPOSITION CONTAINING CYCLIC COMPOUND HAVING SELECTIVE KRAS INHIBITORY EFFECT AGAINST HRAS AND NRAS” (CHUGAI SEIYAKU KABUSHIKI KAISHA, priority 2022, dated 2024)", "note": "*1 amine or outer side, *2 acyl side, *3 side chain or, on linkers, in order; H or OH if unused. Where a SMILES comes first, the peptide text is derived from it. Bridges are numbered along the chain shown (N, C = ends). [ ]: non-standard residue; d: D form. The star is where a group is joined. hPhe(3-Cl-4-CF3) = N[C@@H](CCc1ccc(C(F)(F)F)c(Cl)c1)C(=O)O; X51 = CCCN([C@@H](Cc1ccc(OC(F)(F)F)cc1)C(=O)[*:2])[*:1]; NPrPhe(4-CF3) = CCCN[C@@H](Cc1ccc(C(F)(F)F)cc1)C(=O)O; NMeGly(cPent) = CN[C@H](C(=O)O)C1CCCC1; Pro(4S-Me) = C[C@@H]1CN[C@H](C(=O)O)C1; Aze(3S-Me) = C[C@H]1CN[C@@H]1C(=O)O; Gly(cPent) = N[C@H](C(=O)O)C1CCCC1; cisHyp = O=C(O)[C@@H]1C[C@H](O)CN1; Hyp = O=C(O)[C@@H]1C[C@@H](O)CN1; NMeD = CN[C@@H](CC(=O)O)C(=O)O; NMeL = CN[C@@H](CC(C)C)C(=O)O; Morpholide = C1CN(*)CCO1; NMeA = CN[C@@H](C)C(=O)O; Ac5c = NC1(C(=O)O)CCCC1; Aze = O=C(O)[C@@H]1CCN1; Ethyl(2,2-F2) = FC(F)C*; Ac4c = NC1(C(=O)O)CCC1; Ac3c = NC1(C(=O)O)CC1; NEtG = CCNCC(=O)O; Sar = CNCC(=O)O", "data": [{"tested_on": "human lung cancer strain NCI-H441", "type": "cell-based", "experimental": "A test compound was dispensed into a U-bottom 384-well plate as 40 nL serially diluted dimethyl sulfoxide solutions using a liquid handler Echo (LABCYTE). […] This cell suspension was dispensed in an amount of 40 µL per well into a plate containing the test compound, and cultured at 37°C in a 5% carbon dioxide gas incubator. Four days later, 20 µL of CellTiter-Glo (registered trademark) (Promega) was added to each well and […] was measured. […]", "units": {"IC50": "nM"}, "values": [{"smiles": "CCCN1C(=O)CN(C)C(=O)CN(C)C(=O)[C@H]([C@@H](C)CC)NC(=O)[C@H](CC(C)C)N(C)C(=O)C[C@@H](C(=O)N2CCOCC2)N(C)C(=O)[C@H](C2CCCC2)N(C)C(=O)C2(CCCC2)NC(=O)[C@@H]2CCCN2C(=O)[C@H](CCc2ccc(C(F)(F)F)c(Cl)c2)NC(=O)CN(C)C(=O)[C@@H]1Cc1ccc(OC(F)(F)F)cc1", "note": "[PP0137] ([NMeL]I[Sar][Sar][X51][Sar][hPhe(3-Cl-4-CF3)]P[Ac5c][NMeGly(cPent)][NMeD]-Morpholide; lactam N-11)", "IC50": 13.4}, {"smiles": "CCCN1C(=O)CN(C)C(=O)CN(C)C(=O)[C@H]([C@@H](C)CC)NC(=O)[C@H](CC(C)C)N(C)C(=O)C[C@@H](C(=O)N2CCOCC2)N(C)C(=O)[C@H](C2CCCC2)N(C)C(=O)C2(CCCC2)NC(=O)[C@@H]2C[C@H](OCC(F)F)CN2C(=O)[C@H](CCc2ccc(C(F)(F)F)c(Cl)c2)NC(=O)CN(C)C(=O)[C@@H]1Cc1ccc(C(F)(F)F)cc1", "note": "[PP0245] ([NMeL]I[Sar][Sar][NPrPhe(4-CF3)][Sar][hPhe(3-Cl-4-CF3)][cisHyp](Ethyl(2,2-F2))[Ac5c][NMeGly(cPent)][NMeD]-Morpholide; lactam N-11)", "IC50": 22.9}, {"smiles": "CCCN1C(=O)CN(C)C(=O)CN(C)C(=O)[C@H](C2CCCC2)NC(=O)[C@H](CC(C)C)N(C)C(=O)C[C@@H](C(=O)N2CCOCC2)N(C)C(=O)[C@H](C2CCCC2)N(C)C(=O)C2(CCCC2)NC(=O)[C@@H]2CCCN2C(=O)[C@H](CCc2ccc(C(F)(F)F)c(Cl)c2)NC(=O)CN(C)C(=O)[C@@H]1Cc1ccc(C(F)(F)F)cc1", "note": "[PP0251] ([NMeL][Gly(cPent)][Sar][Sar][NPrPhe(4-CF3)][Sar][hPhe(3-Cl-4-CF3)]P[Ac5c][NMeGly(cPent)][NMeD]-Morpholide; lactam N-11)", "IC50": 8.4}, {"smiles": "CCCN1C(=O)[C@@H]2CCN2C(=O)C2(CC2)NC(=O)[C@H]([C@@H](C)CC)NC(=O)[C@H](CC(C)C)N(C)C(=O)C[C@@H](C(=O)N2CCOCC2)N(C)C(=O)[C@H](C2CCCC2)N(C)C(=O)C2(CCCC2)NC(=O)[C@@H]2CCCN2C(=O)[C@H](CCc2ccc(C(F)(F)F)c(Cl)c2)NC(=O)CN(C)C(=O)[C@@H]1Cc1ccc(C(F)(F)F)cc1", "note": "[PP0276] ([NMeL]I[Ac3c][Aze][NPrPhe(4-CF3)][Sar][hPhe(3-Cl-4-CF3)]P[Ac5c][NMeGly(cPent)][NMeD]-Morpholide; lactam N-11)", "IC50": 752}, {"smiles": "CCCN1C(=O)[C@@H]2CCN2C(=O)[C@@H]2[C@@H](C)CN2C(=O)[C@H]([C@@H](C)CC)NC(=O)[C@H](CC(C)C)N(C)C(=O)C[C@@H](C(=O)N2CCOCC2)N(C)C(=O)[C@H](C2CCCC2)N(C)C(=O)C2(CCCC2)NC(=O)[C@@H]2CCCN2C(=O)[C@H](CCc2ccc(C(F)(F)F)c(Cl)c2)NC(=O)CN(C)C(=O)[C@@H]1Cc1ccc(C(F)(F)F)cc1", "note": "[PP0279] ([NMeL]I[Aze(3S-Me)][Aze][NPrPhe(4-CF3)][Sar][hPhe(3-Cl-4-CF3)]P[Ac5c][NMeGly(cPent)][NMeD]-Morpholide; lactam N-11)", "IC50": 15}, {"smiles": "CCCN1C(=O)[C@@H]2CCN2C(=O)CN(C)C(=O)[C@H]([C@@H](C)CC)NC(=O)[C@H](CC(C)C)N(C)C(=O)C[C@@H](C(=O)N(C)C)NC(=O)[C@H](C2CCCC2)N(C)C(=O)C2(CCCC2)NC(=O)[C@@H]2CCCN2C(=O)[C@H](CCc2ccc(C(F)(F)F)c(Cl)c2)NC(=O)CN(C)C(=O)[C@@H]1Cc1ccc(C(F)(F)F)cc1", "note": "[PP0385] ([NMeL]I[Sar][Aze][NPrPhe(4-CF3)][Sar][hPhe(3-Cl-4-CF3)]P[Ac5c][NMeGly(cPent)]D-NMe2; lactam N-11)", "IC50": 15.2}, {"smiles": "CCCN1C(=O)[C@@H]2CCN2C(=O)[C@H](C)N(C)C(=O)[C@H]([C@@H](C)CC)NC(=O)[C@H](CC(C)C)N(C)C(=O)C[C@@H](C(=O)N(C)C)N(C)C(=O)[C@H](C2CCCC2)N(C)C(=O)C2(CCC2)NC(=O)[C@@H]2C[C@@H](OCC)CN2C(=O)[C@H](CCc2ccc(C(F)(F)F)c(Cl)c2)NC(=O)CN(C)C(=O)[C@@H]1Cc1ccc(C(F)(F)F)cc1", "note": "[PP0439] ([NMeL]I[NMeA][Aze][NPrPhe(4-CF3)][Sar][hPhe(3-Cl-4-CF3)][Hyp](Et)[Ac4c][NMeGly(cPent)][NMeD]-NMe2; lactam N-11)", "IC50": 0.7}, {"smiles": "CCCN1C(=O)CN(C)C(=O)CN(CC)C(=O)[C@H]([C@@H](C)CC)NC(=O)[C@H](CC(C)C)N(C)C(=O)C[C@@H](C(=O)N2CCOCC2)N(C)C(=O)[C@H](C2CCCC2)N(C)C(=O)C2(CCCC2)NC(=O)[C@@H]2C[C@H](C)CN2C(=O)[C@H](CCc2ccc(C(F)(F)F)c(Cl)c2)NC(=O)CN(C)C(=O)[C@@H]1Cc1ccc(C(F)(F)F)cc1", "note": "[PP0451] ([NMeL]I[NEtG][Sar][NPrPhe(4-CF3)][Sar][hPhe(3-Cl-4-CF3)][Pro(4S-Me)][Ac5c][NMeGly(cPent)][NMeD]-Morpholide; lactam N-11)", "IC50": 11.2}]}]}
